We go through two compounds from patent US11623925B2, “Processes for preparing a diaminopyrimidine derivative or acid addition salt thereof” (YUHAN CORPORATION, priority 2018, dated 2023).

Data set [1] is described as follows: Stability tests: storage at 60° C. and 75% RH for 2 weeks, HPLC analysis. The conditions noted are these: for change in the HPLC purity / change in the amount of deacetylated impurities: 2 weeks, in words. The class given is physicochemical. Here is the method:
(S)-N-(1-(2-((4-amino-3-nitrophenyl)amino)-6-propylpyrimidin-4-yl)pyrrolidin-3-yl) acetamide hydrochloride prepared according to WO 2012/115480 (Amorphous form, Test compound 1) and the crystalline form A of (S)-N-(1-(2-((4-amino-3-nitrophenyl)amino)-6-propylpyrimidin-4-yl)pyrrolidin-3-yl)acetamide hydrochloride prepared in Example 7 (Test compound 2) were stored under the conditions of 60° C. and 75% RH for 2 weeks. The amounts of each test compound and the deacetylated impurities were analyzed with HPLC so as to measure the respective HPLC purities.

Data set [2] in a line: Storage of the amorphous hydrochloride at room temperature. The class given is physicochemical. The conditions noted are these: stored at room temperature; in words. Here is the method: In addition, WO 2012/115480 has disclosed the step for converting the compound of Formula 1 to a hydrochloride thereof. The converting step comprises reacting the compound of Formula 1 with hydrochloric acid in ethyl acetate, stirring at room temperature for 1 hour, and then filtering the product. It has been found by the present inventors that the hydrochloride of the compound of Formula 1 obtained by said method is in the amorphous form and brings about the problem producing deacetylated impurities in high level when stored at room temperature.

Counter-ions that a name gives are not always drawn.

As to `CCCc1cc(N2CC[C@H](NC(C)=O)C2)nc(Nc2ccc(N)c([N+](=O)[O-])c2)n1` [Test compound 2, (S)-N-(1-(2-((4-amino-3-nitrophenyl)amino)-6-propylpyrimidin-4-yl)pyrrolidin-3-yl)acetamide hydrochloride], in data set [1], the “change in the HPLC purity” value is on record as “no significant change” and the “change in the amount of deacetylated impurities” value is on record as “no significant change”. In addition, in data set [1] (Storage time: 1 week), the “HPLC purities, Compound” value is given as 99.6% and the “HPLC purities, Deacetylated impurities” value is listed as 0.07%. Further, in data set [1] (Storage time: 2 weeks), the “HPLC purities, Compound” value is 99.6% and the “HPLC purities, Deacetylated impurities” value worked out at 0.07%. Moreover, in data set [1] (Storage time: Initial), the “HPLC purities, Compound” value was determined as 99.6% and the “HPLC purities, Deacetylated impurities” value is 0.08%.

`CCCc1cc(N2CC[C@H](NC(C)=O)C2)nc(Nc2ccc(N)c([N+](=O)[O-])c2)n1.Cl` [Test compound 1, (S)-N-(1-(2-((4-amino-3-nitrophenyl)amino)-6-propylpyrimidin-4-yl)pyrrolidin-3-yl) acetamide hydrochloride]: in data set [2], the “deacetylated impurities produced on storage” value is listed as “high level”. Besides, in data set [1], the “change in the HPLC purity” value is listed as “marked decrease” and the “change in the amount of deacetylated impurities” value is reported as “marked increase”. Also, in data set [1] (Storage time: 1 week), the “HPLC purities, Compound” value was found to be 95.5% and the “HPLC purities, Deacetylated impurities” value worked out at 3.78%. Further, in data set [1] (Storage time: 2 weeks), the “HPLC purities, Compound” value came out at 86.6% and the “HPLC purities, Deacetylated impurities” value is reported as 12.7%. Besides, in data set [1] (Storage time: Initial), the “HPLC purities, Compound” value is reported as 98.7% and the “HPLC purities, Deacetylated impurities” value is recorded as 0.58%.
